The values that follow come from US20070249590A1, “Substituted indolo[2,3-a]pyrrolo[3,4-c]carbazole compounds useful in treating kinase disorders” (priority 2005, published 2007).

For the experiment, the target named is T1, JAK3 (JH1 and JH2 domain) (Homo sapiens, UniProt P52333).
T1 sequence (P52333 521-1111 limits assumed): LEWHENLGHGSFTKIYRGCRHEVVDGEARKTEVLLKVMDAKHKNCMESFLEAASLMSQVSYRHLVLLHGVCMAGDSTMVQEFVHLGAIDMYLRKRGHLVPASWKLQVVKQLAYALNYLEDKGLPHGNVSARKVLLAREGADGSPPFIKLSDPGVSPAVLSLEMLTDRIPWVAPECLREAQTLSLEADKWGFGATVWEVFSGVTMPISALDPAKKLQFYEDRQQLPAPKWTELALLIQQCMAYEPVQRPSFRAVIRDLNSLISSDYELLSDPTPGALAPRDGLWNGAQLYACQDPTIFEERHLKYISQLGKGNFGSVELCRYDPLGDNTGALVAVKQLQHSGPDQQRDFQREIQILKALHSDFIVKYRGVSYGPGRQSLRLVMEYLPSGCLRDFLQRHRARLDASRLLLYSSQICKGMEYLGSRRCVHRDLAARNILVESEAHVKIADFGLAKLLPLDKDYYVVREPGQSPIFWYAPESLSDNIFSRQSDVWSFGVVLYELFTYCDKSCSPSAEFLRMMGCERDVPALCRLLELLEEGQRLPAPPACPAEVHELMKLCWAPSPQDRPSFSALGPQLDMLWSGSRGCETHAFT
Put plainly: JAK3 Kinase Assay (ELISA of peptide substrate phosphorylation). To be noted: purified JAK3 enzyme, 10 μM ATP, biotinylated peptide substrate, 1 hour at room temperature. The experiment is classed as biochemical. Put shortly:
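Sf21-baculovirus-expressed JAK3 (JH1+JH2), glutathione-bead purified, with biotinylated peptide substrate (in buffer containing 10 μM ATP) in HEPES pH 7.5/MgCl2/DTT, 1 h RT. Product was captured on Neutravidin, detected with HRP anti-phosphotyrosine (PY99)/TMB, OD 450/650 nm. Triplicate 16-point half-log series from 200 μM gave IC50; otherwise % inhibition at 1 μM.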
As to `CC(C)(C)OC(=O)NC1CCN(C(=O)OCC2Cn3c4ccccc4c4c5c(c6c7ccccc7n(c6c43)C2)C(=O)NC5)CC1` (stereo not drawn) [Cpd 172, 12,13-(2-{[4-(t-butoxycarbonylamino)piperidin-1-yl]carbonyloxymethyl}-propan-1,3-yl)-6,7,12,13-tetrahydro-5-oxo-5H-indolo[2,3-a]pyrrolo[3,4-c]carbazole], the half-inhibitory concentration (IC50) (commonly the midpoint of a concentration-inhibition curve) amounted to 0.12 µM.
Turning to `CN(C)CCN(Cc1ccccc1)C(=O)OC1Cn2c3ccccc3c3c4c(c5c6ccccc6n(c5c32)CC1O)C(=O)NC4=O` (stereo not drawn) [Cpd 69, 12,13-(2-{[N-benzyl-N-(2-dimethylamino-ethyl)]carbamoyloxy}-3-hydroxy-butan-1,4-yl)-12,13-dihydro-5,7-dioxo-6H-indolo[2,3-a]pyrrolo[3,4-c]carbazole], the IC50 was determined as 0.055 µM.
As to `Cc1ccc(CNC(=O)OCC2(O)Cn3c4ccccc4c4c5c(c6c7ccccc7n(c6c43)C2)C(=O)NC5)o1` (stereo not drawn) [Cpd 141, 12,13-(2-hydroxy-2-{[(5-methyl-furan-2-yl)methyl]carbamoyloxymethyl}-propan-1,3-yl)-6,7,12,13h-tetrahydro-5-oxo-5H-indolo[2,3-a]pyrrolo[3,4-c]carbazole], the concentration for half-maximal inhibition (IC50) was determined as 0.117 µM.
Under `O=C(NCc1ccncc1)OC1CCn2c3ccccc3c3c4c(c5c6ccccc6n(c5c32)C1)C(=O)NC4=O` (stereo not drawn) [Cpd 47, 12,13-{2-[(pyridin-4-yl-methyl)carbamoyloxy]-butan-1,4-yl}-12,13-dihydro-5,7-dioxo-6H-indolo[2,3-a]pyrrolo[3,4-c]carbazole] stands 0.03 µM; under `O=C1NC(=O)c2c1c1c3ccccc3n3c1c1c2c2ccccc2n1CC(OC(=O)N1CCN(C2CCCCC2)CC1)C(O)C3` (stereo not drawn) [Cpd 101, 12,13-{2-[(4-cyclohexyl-piperazin-1-yl)carbonyloxy]-3-hydroxy-butan-1,4-yl}-12,13-dihydro-5,7-dioxo-6H-indolo[2,3-a]pyrrolo[3,4-c]carbazole], 1.1 µM; under `COc1ccccc1CNC(=O)OCC1Cn2c3ccccc3c3c4c(c5c6ccccc6n(c5c32)C1)C(=O)NC4` (stereo not drawn) [Cpd 169, 12,13-{2-[(2-methoxy-benzyl)carbamoyloxymethyl]-propan-1,3-yl}-6,7,12,13-tetrahydro-5-oxo-5H-indolo[2,3-a]pyrrolo[3,4-c]carbazole], 0.073 µM.
The result for `C/C1=C(\C)Cn2c3ccccc3c3c4c(c5c6ccccc6n(c5c32)C1)CNC4=O` [Cpd 4, 12,13-(2,3-dimethyl-but-2-en-1,4-yl)-6,7,12,13-tetrahydro-5-oxo-5H-indolo[2,3-a]pyrrolo[3,4-c]carbazole] reads 0.072 µM; that for `O=C1NC(=O)c2c1c1c3ccccc3n3c1c1c2c2ccccc2n1CC(OC(=O)N1CCN(Cc2ccccc2)CC1)CC3` (stereo not drawn) [Cpd 44, 12,13-{2-[(4-benzyl-piperazin-1-yl)carbonyloxy]-butan-1,4-yl}-12,13-dihydro-5,7-dioxo-6H-indolo[2,3-a]pyrrolo[3,4-c]carbazole], 0.122 µM.
As for `O=C(NC1CCN(Cc2ccccc2)CC1)OCC1Cn2c3ccccc3c3c4c(c5c6ccccc6n(c5c32)C1)C(=O)NC4` (stereo not drawn) [Cpd 163, 12,13-{2-[(1-benzyl-piperidin-4-yl)carbamoyloxymethyl]-propan-1,3-yl}-6,7,12,13-tetrahydro-5-oxo-5H-indolo[2,3-a]pyrrolo[3,4-c]carbazole], the IC50 was approximately 1 µM.
As for `Cc1ncsc1/C=C/c1ccc2c(c1)c1c3c(c4c5ccccc5n5c4c1n2CC(CO)C5)CNC3=O` (stereo not drawn) [Cpd 217, 3-[(2E)-2-(4-methyl-thiazol-5-yl)ethenyl]-12,13-(2-hydroxymethyl-propan-1,3-yl)-6,7,12,13-tetrahydro-5-oxo-5H-indolo[2,3-a]pyrrolo[3,4-c]carbazole], the IC50 was 0.592 µM.
Turning to `CN1CCN(C(=O)OC2Cn3c4ccccc4c4c5c(c6c7ccccc7n(c6c43)CC2O)C(=O)NC5=O)CC1` (stereo not drawn) [Cpd 76, 12,13-{2-[(4-methyl-piperazin-1-yl)carbonyloxy]-3-hydroxy-butan-1,4-yl}-12,13-dihydro-5,7-dioxo-6H-indolo[2,3-a]pyrrolo[3,4-c]carbazole], the IC50 was determined as 0.064 µM.
The result for `O=C1NC(=O)c2c1c1c3ccccc3n3c1c1c2c2ccccc2n1CC(OC(=O)N1CCN(C(c2ccccc2)c2ccccc2)CC1)C(O)C3` (stereo not drawn) [Cpd 103, 12,13-{2-[(4-benzhydryl-piperazin-1-yl)carbonyloxy]-3-hydroxy-butan-1,4-yl}-12,13-dihydro-5,7-dioxo-6H-indolo[2,3-a]pyrrolo[3,4-c]carbazole] reads 0.436 µM.
